Values of other authors in patent US20080188510A1, “NOVEL METHODS USING ZONISAMIDE” (Eisai R & D Management Co., Ltd., priority 2005, published 2008).

Tested on: dopaminergic neurodegeneration induced by MPTP
Settings: MPTP (1-methyl-4-phenyl-1,2,3,6-tetrahydropyridine) induced; cited from earlier work

NS(=O)(=O)Cc1noc2ccccc12 [zonisamide, 3-sulfamoylmethyl-1,2-benzisoxazole]
suppressant action to dopaminergic neurodegeneration induced by MPTP: extremely strong suppressant action
